According to publication PMC4138267 (Nature chemical biology, 2014):
Read-outs that look alike come from different tables or passages of the source. Each block holds one compound with its values, some of them ahead of it.

How the values were obtained:
Type in all cases: cell-based
[1] = molecular target: human D2 dopamine receptor (D2LR) (Homo sapiens, UniProt P14416); test: ERK1/2 phosphorylation assay, Flp-In CHO cells expressing D2LR; details: for Logαβ: cooperativity with dopamine
[2] = molecular target: D2R dimer: WT D2R (protomer A) + D2R-Gqi5 fusion (protomer B) (UniProt P14416+P21279); test: Aequorin functional complementation assay, WT:WT pair; details: WT:WT complement pair; 100 µM dopamine
[3] = molecular target: D2R dimer: WT D2R (protomer A) + D2-Asp114^3.32Ala-Gqi5 (protomer B) (Homo sapiens, UniProt P14416)
D2R dimer: WT D2R (protomer A) + D2-Asp114^3.32Ala-Gqi5 (protomer B), sequence (P14416 1-414 isoform P14416-2): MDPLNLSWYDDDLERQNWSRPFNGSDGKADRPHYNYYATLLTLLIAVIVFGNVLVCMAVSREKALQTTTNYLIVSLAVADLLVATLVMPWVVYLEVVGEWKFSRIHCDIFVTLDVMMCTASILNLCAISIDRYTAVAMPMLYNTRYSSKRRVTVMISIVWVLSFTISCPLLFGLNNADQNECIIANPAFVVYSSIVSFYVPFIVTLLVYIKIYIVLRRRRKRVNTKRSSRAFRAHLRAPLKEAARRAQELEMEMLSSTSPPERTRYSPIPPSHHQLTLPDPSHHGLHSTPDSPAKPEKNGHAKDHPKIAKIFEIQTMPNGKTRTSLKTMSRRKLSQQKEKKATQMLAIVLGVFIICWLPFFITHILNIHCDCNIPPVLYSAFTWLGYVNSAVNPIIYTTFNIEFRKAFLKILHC

[4] = molecular target: N-terminal c-myc-tagged WT D2LR (Homo sapiens, UniProt P14416); test: ERK1/2 phosphorylation assay, Flp-In CHO cells, c-myc-tagged WT D2LR; details: pERK1/2, interaction with dopamine
N-terminal c-myc-tagged WT D2LR, sequence (P14416 whole entry): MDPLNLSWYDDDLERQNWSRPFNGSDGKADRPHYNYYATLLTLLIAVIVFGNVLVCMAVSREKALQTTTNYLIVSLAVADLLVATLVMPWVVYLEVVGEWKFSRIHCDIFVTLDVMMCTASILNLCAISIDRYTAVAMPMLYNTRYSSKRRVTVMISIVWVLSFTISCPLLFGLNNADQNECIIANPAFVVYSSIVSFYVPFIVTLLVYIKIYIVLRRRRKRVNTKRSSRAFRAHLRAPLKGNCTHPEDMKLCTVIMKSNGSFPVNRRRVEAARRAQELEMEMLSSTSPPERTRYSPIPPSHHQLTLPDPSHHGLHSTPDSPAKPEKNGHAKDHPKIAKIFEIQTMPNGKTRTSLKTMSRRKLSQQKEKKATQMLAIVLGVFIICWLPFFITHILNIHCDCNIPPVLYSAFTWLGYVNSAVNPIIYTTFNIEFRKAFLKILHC

[5] = molecular target: Val91^2.61Ala D2LR (Homo sapiens, UniProt P14416, V91A); details: pERK1/2, interaction with dopamine
Val91^2.61Ala D2LR, sequence (P14416 whole entry V91A): as the sequence (P14416 whole entry) above, with V91A counted along it

[6] = KB, pERK1/2, probe ligand dopamine

human D2 dopamine receptor (D2LR), sequence (P14416 whole entry, the tested form may be a part): as the sequence (P14416 whole entry) above

Structure (SMILES): CCCN1CCc2ccc(C#N)cc2C1 [MIPS1071, 2-propyl-1,2,3,4-tetrahydroisoquinoline-7-carbonitrile]
Kb ([1]; KB, pERK1/2, probe ligand S-3PPP): 363 nM
Kb ([1]; KB, pERK1/2, probe ligand aripiprazole): 575 nM
Kb [1, 6]: 380 nM
Logαβ ([1]; pERK1/2): 1.00 ± 0.08
Schild Slope ([1]; pERK1/2, probe ligand S-3PPP): 1.11 ± 0.18
Schild Slope ([1]; pERK1/2, probe ligand aripiprazole): 0.94 ± 0.18

Structure (SMILES): CCN1CCCC1CNC(=O)c1cc(S(N)(=O)=O)ccc1OC (stereo not drawn) [sulpiride]
extent of antagonism of dopamine [2]: completely inhibited
extent of antagonism of dopamine [3]: completely antagonized

Structure (SMILES): N#Cc1ccc2c(c1)CNCC2 [THIQ7C, 1,2,3,4-tetrahydroisoquinoline-7-carbonitrile]
Kb [1, 6]: 2510 nM
Logαβ ([1]; pERK1/2): 1.03 ± 0.18
fold lower affinity than SB269652 ([1]; pERK1/2, probe ligand dopamine): 17 fold

Next, values leading:

Kb [1]: 23.4 nM
Schild Slope ([1]; pERK1/2, probe ligand dopamine): 1.06 ± 0.04
Structure (SMILES): CC(=O)N[C@H]1CC[C@H](CCN2CCc3ccc(C#N)cc3C2)CC1 [MIPS1059, N-((trans)-4-(2-(7-cyano-3,4-dihydroisoquinolin-2(1H)yl)ethyl)cyclohexyl)acetamide]

Kb [4]: 195 nM
Kb [5]: 891 nM
Structure (SMILES): N#Cc1ccc2c(c1)CCN(CC[C@H]1CC[C@@H](NC(=O)c3cc4ccccc4[nH]3)CC1)C2 [MIPS1217]
